Active and inactive are the calls of the source. The rule behind the calls is not given here.

In one assay the target is T1, Vitamin D3 receptor (Homo sapiens, UniProt P11473).
T1 sequence (P11473 whole entry): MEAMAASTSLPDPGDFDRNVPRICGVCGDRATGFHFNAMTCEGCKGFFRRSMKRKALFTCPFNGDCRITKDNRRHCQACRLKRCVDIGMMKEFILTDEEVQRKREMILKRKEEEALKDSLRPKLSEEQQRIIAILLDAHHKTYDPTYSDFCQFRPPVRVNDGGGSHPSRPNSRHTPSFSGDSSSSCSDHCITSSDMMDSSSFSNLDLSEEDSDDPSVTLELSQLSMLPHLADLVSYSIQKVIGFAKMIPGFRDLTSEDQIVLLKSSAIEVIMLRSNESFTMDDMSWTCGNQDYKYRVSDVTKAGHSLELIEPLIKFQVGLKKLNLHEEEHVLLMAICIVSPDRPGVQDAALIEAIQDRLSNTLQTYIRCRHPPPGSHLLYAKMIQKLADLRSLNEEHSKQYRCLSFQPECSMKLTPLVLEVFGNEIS
Nature of the assay: Binding affinity to VDR-LBD by fluorescence polarization competition assay. (In general: Polarisation of emitted light reports the rotation of a fluorescent probe.)

The target of the next assay is Tubulin (Homo sapiens) (UniProt P68371+Q9H4B7+P0DPH7+P68366+Q13509+Q71U36+P04350+Q3ZCM7+P07437+P68363+Q9BQE3+Q6PEY2+Q13885+Q9BVA1+Q9BUF5). Nature of the assay: Inhibition of HDAC in human SCC25 cells assessed as hyperacetylation of tubulin at 1 uM by Western blotting. It is filed as cell-based. To be noted: SCC-25.
The target in assay [1] is Histone deacetylase (Homo sapiens) (UniProt Q13547+O15379+Q9UBN7+Q92769+Q9UQL6+Q8WUI4+Q9BY41+Q96DB2+P56524+Q9UKV0+Q969S8). Nature of the assay: Inhibition of HDAC in human SCC4 cells assessed as hyperacetylation of histone H4 at 1 uM by Western blotting. To be noted: SCC-4.
For assay [2], the target named is T2, Vitamin D3 receptor (Homo sapiens) (UniProt P11473).
T2 sequence (whole entry): T1 sequence (P11473 whole entry)
As to the kind of experiment: Agonist activity at VDR in human SCC25 cells assessed as induction of CYP24 expression at 1 to 10 uM by semiquantitative analysis. It is filed as functional, cell-based. As to conditions: SCC-25.

Assay [3] has as its target T2, Vitamin D3 receptor (Homo sapiens). Nature of the assay: Agonist activity at VDR in human SCC25 cells assessed as induction of CYP24 expression at 1 to 10 uM by RT-PCR analysis. The assay is classed as functional, cell-based. To be noted: SCC-25.
Assay [4] has as its target T3, Protein deacetylase HDAC6 (Homo sapiens) (UniProt Q9UBN7).
T3 sequence (whole entry): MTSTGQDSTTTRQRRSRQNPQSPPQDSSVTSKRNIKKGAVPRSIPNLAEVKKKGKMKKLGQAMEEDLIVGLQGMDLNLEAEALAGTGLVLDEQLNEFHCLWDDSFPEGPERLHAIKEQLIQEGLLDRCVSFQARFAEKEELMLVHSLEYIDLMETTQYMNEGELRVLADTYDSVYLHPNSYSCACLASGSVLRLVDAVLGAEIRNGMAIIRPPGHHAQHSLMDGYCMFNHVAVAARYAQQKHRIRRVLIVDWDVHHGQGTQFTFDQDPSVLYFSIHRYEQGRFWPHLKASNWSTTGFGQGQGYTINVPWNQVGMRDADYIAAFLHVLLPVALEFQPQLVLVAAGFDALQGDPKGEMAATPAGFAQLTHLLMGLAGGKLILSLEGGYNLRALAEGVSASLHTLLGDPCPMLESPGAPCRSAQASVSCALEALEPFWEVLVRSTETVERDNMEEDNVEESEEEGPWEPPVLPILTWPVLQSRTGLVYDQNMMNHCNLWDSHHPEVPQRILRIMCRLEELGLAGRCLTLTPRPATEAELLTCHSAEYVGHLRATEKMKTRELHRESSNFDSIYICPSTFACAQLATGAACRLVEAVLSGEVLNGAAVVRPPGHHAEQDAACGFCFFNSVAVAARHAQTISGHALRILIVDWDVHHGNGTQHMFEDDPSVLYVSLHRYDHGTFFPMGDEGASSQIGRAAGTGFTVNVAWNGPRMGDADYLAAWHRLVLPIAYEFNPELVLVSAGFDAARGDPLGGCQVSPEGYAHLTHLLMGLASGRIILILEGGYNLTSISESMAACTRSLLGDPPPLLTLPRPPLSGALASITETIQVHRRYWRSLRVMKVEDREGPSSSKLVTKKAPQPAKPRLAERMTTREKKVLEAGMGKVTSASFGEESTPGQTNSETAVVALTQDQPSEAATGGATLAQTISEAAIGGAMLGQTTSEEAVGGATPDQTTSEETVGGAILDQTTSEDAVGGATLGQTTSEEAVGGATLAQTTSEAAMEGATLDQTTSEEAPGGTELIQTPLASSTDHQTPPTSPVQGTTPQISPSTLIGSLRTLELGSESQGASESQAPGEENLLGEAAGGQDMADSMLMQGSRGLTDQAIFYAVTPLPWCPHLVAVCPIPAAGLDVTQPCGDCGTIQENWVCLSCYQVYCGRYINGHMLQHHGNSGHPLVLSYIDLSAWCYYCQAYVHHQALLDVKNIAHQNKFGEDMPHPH
As to the kind of experiment: Inhibition of human recombinant HDAC6 up to 1 mM by fluorescence assay.

The target of assay [5] is T2, Vitamin D3 receptor (Homo sapiens). As to conditions: 1uM.
Description: Inhibition of VDR agonist-mediated AIB1 recruitment to CYP24 promoter in ChIP assay at 1uM

`C[C@H](CCCCC(=O)Nc1ccccc1N)[C@H]1CC[C@H]2/C(=C/C=C3C[C@@H](O)C[C@H](O)C3)CCC[C@]12C`: the IC50 (commonly the concentration at which inhibition is half-maximal) on Vitamin D3 receptor turned out to be 0.248 µM. For the same compound, the inhibition entry (on Tubulin (Homo sapiens); in assay [1]) was “Active” in each case.
Turning to `CC(/C=C/C(=O)Nc1ccccc1N)=C\[C@@H](C)[C@H]1CC[C@H]2/C(=C/C=C3CC(O)C[C@H](O)C3)CCC[C@]12C` (single isomer, unassigned), the IC50 on Vitamin D3 receptor is 0.107 µM. In addition, the outcome in assay [2] and in assay [3] was inactive. The inhibition entry (at Tubulin (Homo sapiens); in assay [4]; in assay [1]) was “inactive” in each case. The inhibition entry in assay [5] was “Active”.
In the case of `C=C1/C(=C\C=C2/CCC[C@]3(C)[C@@H]([C@H](C)/C=C/[C@@H](O)C4(C(=O)OCCCC)CC4)CC[C@@H]23)C[C@@H](O)C[C@@H]1O`, the outcome in assay [2] and in assay [3] was Active.

The record behind these values is ChEMBL document CHEMBL1268926, “An o-aminoanilide analogue of 1α,25-dihydroxyvitamin D(3) functions as a strong vitamin D receptor antagonist” (J Med Chem, 2010).
